Data taken from PMC8245773, “Brevibacillin 2V, a Novel Antimicrobial Lipopeptide With an Exceptionally Low Hemolytic Activity” (Frontiers in Microbiology, 2021).
*1 amine or outer side, *2 acyl side, *3 side chain or, on linkers, in order; H or OH if unused. Where a SMILES comes first, the peptide text is derived from it. [ ]: non-standard residue; d: D form. The star is where a group is joined. X2 = CC=C(N[*:1])C(=O)[*:2]; dOrn = NCCC[C@@H](N)C(=O)O; Valol = CC(C)[C@@H](CO)N*; X1 = CCC(C)C(O)C(=O)*

Columns and labels:
human erythrocytes = experiment: Hemolytic activity; conditions: for HC50 (concentration that causes 50% hemolysis of human red blood cells): 1 h
Protocol: This assay was performed as per the method described in previous studies ([Ling et al., 2015]; [Li et al., 2018]). Briefly, erythrocytes were isolated from a healthy human volunteer donor (ordered from Sanquin, Netherlands^1) and washed with phosphate-buffered saline (PBS) three times. After that, peptides were added at final concentrations of 128, 64, 32, 16, 8, 4, 2, 1, and 0 mg/L in PBS containing 2% (v/v) erythrocytes. The cells were incubated at 37°C for 1 h and centrifuged for 5 min at 8,000 g. The supernatant was transferred to a 96-well plate, and the absorbance was measured at a wavelength of 450 nm with a Thermo Scientific Varioskan^TM LUX multimode microplate reader. The absorbance relative to the positive control, which was treated with 10% Triton X-100, was defined as the percentage of hemolysis. The 50% human blood cell hemolysis concentration (HC50) of peptides was calculated as described in previous studies ([Reed and Muench, 1938]).
(§1) GraphPad Prism 7.0 was used to fit the data of hemolytic assay and cytotoxicity assay in Figure 3. The experiments were conducted in triplicate, and data are presented as the mean value of triplicate experiments. Data Explorer Software was used to analyze the MALDI-TOF data; Thermo Scientific Xcalibur software was used to analyze the LC–MS/MS data. The statistical significance of the data was assessed using Duncan’s multiple-range test with the software SPSS Statistics 19.0. P-values less than 0.05 were considered to be statistically significant.

HepG2 cells = conditions: for HepG2 CC50: 24 h
Protocol: The cytotoxicity of brevibacillins was evaluated on HepG2 cells by using the XTT (Cell Proliferation Kit XTT, AppliChem) assay ([Roehm et al., 1991]). HepG2 cells [in Dulbecco’s modified Eagle’s medium (DMEM) supplemented with 10% fetal bovine serum] were seeded into 96-well plates and incubated at 37°C with 5% CO2. After 24 h, the medium was replaced with a fresh medium (DMEM with 2% FBS, 100 μl per well) containing different concentrations of brevibacillins ([Zhao et al., 2017]). After 24 h of incubation, the XTT reagent was added to the cultures according to the manufacturer’s instructions, and the plates were incubated at 37°C for 2 h with 5% CO2. Subsequently, the absorbance values were measured by using a Varioskan^TM LUX multimode microplate reader (Thermo Fisher Scientific) at 485 nm (reference, 690 nm). The 50% cell toxicity (CC50) of peptides was calculated as described in a previous study ([Reed and Muench, 1938]).
as §1

[1] = cited from earlier work
Protocol: For cytotoxicity assays, HepG2 cells were incubated in the presence of brevibacillin concentrations ranging from 2 to 64 mg/L. After 24 h of incubation, cell viability was determined using an XTT kit.

Row | Compound | hemolytic activity at 128 mg/L (human erythrocytes) | HC50 (concentration that causes 50% hemolysis of human red blood cells) (human erythrocytes) | CC50 (HepG2) relative to MIC values against bacterial pathogens (HepG2 cells) | cytotoxicity to HepG2 cells at 16 mg/L (HepG2 cells) | HepG2 CC50 (HepG2 cells) | hemolytic activity at 64 mg/L (human erythrocytes) | CC50 [1]
1 | CC=C(NC(=O)C(O)C(C)CC)C(=O)N[C@@H](CC(C)C)C(=O)N[C@H](CCCN)C(=O)N[C@H](C(=O)N[C@H](C(=O)N[C@H](C(=O)N[C@H](CCCCN)C(=O)N[C@H](C(=O)N[C@H](C(=O)N[C@@H](CCCCN)C(=O)N[C@H](Cc1ccc(O)cc1)C(=O)N[C@@H](CC(C)C)C(=O)N[C@H](CO)C(C)C)C(C)C)C(C)C)C(C)C)C(C)C)[C@@H](C)CC (stereo partly drawn) [brevibacillin V] (X1-[X2]L[dOrn]IVV[dK]VVK[dY]L-Valol) | completely lysed | 73.1 ± 1.4 mg/L | 2.5- to fivefold | all of the HepG2 cells were killed | 9.89 ± 0.67 µg/mL |  | 
2 | CC=C(NC(=O)C(O)C(C)CC)C(=O)N[C@@H](CC(C)C)C(=O)N[C@H](CCCN)C(=O)N[C@H](C(=O)N[C@H](C(=O)N[C@H](C(=O)N[C@H](CCCCN)C(=O)N[C@H](C(=O)N[C@H](C(=O)N[C@@H](CCCCN)C(=O)N[C@H](Cc1ccc(O)cc1)C(=O)N[C@@H](CC(C)C)C(=O)N[C@H](CO)C(C)C)C(C)C)C(C)C)C(C)C)[C@@H](C)CC)[C@@H](C)CC (stereo partly drawn) [brevibacillin] (X1-[X2]L[dOrn]IIV[dK]VVK[dY]L-Valol) |  | 25.1 ± 0.1 mg/L | 2.5- to fivefold | all of the HepG2 cells were killed | 5.21 ± 0.01 µg/mL | completely lysed | 
3 | bogorol |  |  |  |  |  |  | below 8 mg/L
